The record followed here is US20080306056A1, “PYRAZOLE-DERIVATIVES AS FACTOR Xa INHIBITORS” (SANOFI-AVENTIS DEUTSCHLAND GMBH, priority 2002, published 2008).

Each structure is given as a SMILES string.

The target of this assay is T1, human factor Xa (Homo sapiens, UniProt P00742).
T1 construct: 25 μl human factor Xa (Enzyme Research Laboratories, Inc; South Bend, Ind.); purchased Enzyme Research Laboratories, Inc; South Bend, Ind
T1 sequence (P00742 235-488 limits assumed): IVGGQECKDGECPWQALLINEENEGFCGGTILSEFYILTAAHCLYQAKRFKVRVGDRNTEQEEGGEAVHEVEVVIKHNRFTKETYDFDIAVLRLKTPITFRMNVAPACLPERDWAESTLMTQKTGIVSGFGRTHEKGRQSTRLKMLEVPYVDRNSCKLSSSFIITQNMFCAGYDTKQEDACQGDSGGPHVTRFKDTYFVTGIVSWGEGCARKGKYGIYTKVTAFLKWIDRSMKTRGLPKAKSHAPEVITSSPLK
T1 sequence (P00742 41-179 partner limits assumed): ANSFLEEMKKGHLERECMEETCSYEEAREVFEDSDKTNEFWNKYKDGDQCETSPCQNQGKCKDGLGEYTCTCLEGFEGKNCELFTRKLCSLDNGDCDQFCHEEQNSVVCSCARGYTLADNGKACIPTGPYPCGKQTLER
Nature of the assay: Factor Xa assay (chromogenic, purified enzyme). The class given is biochemical. Conditions: inhibition constant for factor Xa; chromogenic substrate S-2765 140 μM, enzyme 0.5 nM, 25° C., pH 7.8; Ki=IC50/{1+(substrate concentration/Km)}; read-out: Ki(FXa). The text has this:
The ability of the compound of formulae I, Ib and Ic to inhibit factor Xa or factor VIIa or other enzymes like thrombin, plasmin, or trypsin can be assessed by determining the concentration of the compound of the formulae I, Ib and Ic that inhibits enzyme activity by 50%, i.e. the IC50 value, which was related to the inhibition constant Ki. Purified enzymes were used in chromogenic assays. The concentration of inhibitor that causes a 50% decrease in the rate of substrate hydrolysis was determined by linear regression after plotting the relative rates of hydrolysis (compared to the uninhibited control) versus the log of the concentration of the compound of formulae I, Ib and Ic. For calculating the inhibition constant Ki, the IC50 value was corrected for competition with substrate using the formula wherein Km is the Michaelis-Menten constant (Chen and Prusoff, Biochem.
Ki=IC50/{1+(substrate concentration/Km)}
Pharmacol. 22 (1973) 3099-3108; I. H. Segal, Enzyme Kinetics, 1975, John Wiley & Sons, New York, 100-125; which were incorporated herein by reference).
The IC50 was determined by combining in appropriate wells of a Costar half-area microtiter plate 25 μl human factor Xa (Enzyme Research Laboratories, Inc.; South Bend, Ind.) in TBS-PEG; 40 μl 10% (v/v) DMSO in TBS-PEG (uninhibited control) or various concentrations of the compound to be tested diluted in 10% (v/v) DMSO in TBS-PEG; and substrate S-2765 (N(α)-benzyloxycarbonyl-D-Arg-Gly-L-Arg-p-nitroanilide; Kabi Pharmacia, Inc.; Franklin, Ohio) in TBS-PEG.
The assay was performed by pre-incubating the compound of formulae I, Ib and Ic plus enzyme for 10 min. Then the assay was initiated by adding substrate to obtain a final volume of 100 μl. The initial velocity of chromogenic substrate hydrolysis was measured by the change in absorbance at 405 nm using a Bio-tek Instruments kinetic plate reader (Ceres UV900HDi) at 25° C. during the linear portion of the time course (usually 1.5 min after addition of substrate). The enzyme concentration was 0.5 nM and substrate concentration was 140 μM.
The inhibitory activity towards factor VIIa/tissue factor activity was determined using a chromogenic assay essentially as described previously (J. A. Ostrem et al., Biochemistry 37 (1998) 1053-1059 which was incorporated herein by reference). Kinetic assays were conducted at 25° C. in half-area microtiter plates (Costar Corp., Cambridge, Mass.) using a kinetic plate reader (Molecular Devices Spectramax 250). A typical assay consisted of 25 μl human factor VIIa and TF (5 nM and 10 nM, respective final concentration) combined with 40 μl of inhibitor dilutions in 10% DMSO/TBS-PEG buffer (50 mM Tris, 15 mM NaCl, 5 mM CaCl2, 0.05% PEG 8000, pH 8.15). Following a 15 minute preincubation period, the assay was initiated by the addition of 35 μl of the chromogenic substrate S-2288 (D-Ile-Pro-Arg-p-nitroanilide, Pharmacia Hepar Inc., 500 μM final concentration).
On to `CC(C)N1CCC(NC(=O)c2cc(C(=O)NC3CCC3)nn2Cc2cc(-c3ccc(Cl)s3)on2)CC1` [Example 46, 1-[5-(5-Chloro-thiophen-2-yl)-isoxazol-3-ylmethyl]-1H-pyrazole-3,5-dicarboxylic acid 3-cyclobutylamide 5-[(1-isopropyl-piperidin-4-yl)-amide]], for which the Ki is 106 nM. The value for `COCCNC(=O)c1cc(C(=O)NC2CCN(C(C)C)CC2)n(Cc2cc(-c3ccc(Cl)s3)on2)n1` [Example 47, 1-[5-(5-Chloro-thiophen-2-yl)-isoxazol-3-ylmethyl]-1H-pyrazole-3,5-dicarboxylic acid 5-[(1-isopropyl-piperidin-4-yl)-amide] 3-[(2-methoxy-ethyl)-amide]] was 86 nM; that for `CC(C)N1CCC(NC(=O)c2cc(C(=O)N3CCCC3)nn2Cc2cc(-c3ccc(Cl)s3)on2)CC1` [Example 48, 2-[5-(5-Chloro-thiophen-2-yl)-isoxazol-3-ylmethyl]-5-(pyrrolidine-1-carbonyl)-2H-pyrazole-3-carboxylic acid (1-isopropyl-piperidin-4-yl)-amide] was 183 nM; that for `CC(C)N1CCC(NC(=O)c2cc(C(=O)NC#N)nn2Cc2cc(-c3ccc(Cl)s3)on2)CC1` [Example 49, 2-[5-(5-Chloro-thiophen-2-yl)-isoxazol-3-ylmethyl]-5-(cyanamide-1-carbonyl)-2H-pyrazole-3-carboxylic acid (1-isopropyl-piperidin-4-yl)-amide] was 40 nM. With `COC(=O)c1cc(C(=O)NC2CCN(C(C)C)CC2)n(CC(=O)Nc2ccc(Cl)cn2)n1` [Example 50, 1-[(5-Chloro-pyridin-2-ylcarbamoyl)-methyl]-5-(1-isopropyl-piperidin-4-ylcarbamoyl)-1H-pyrazole-3-carboxylic acid methyl ester], the Ki was 10 nM. As for `CC(C)N1CCC(NC(=O)c2cc(C(=O)NC3CCC3)nn2CC(=O)Nc2ccc(Cl)cn2)CC1` [Example 52, 1-[(5-Chloro-pyridin-2-ylcarbamoyl)-methyl]-1H-pyrazole-3,5-dicarboxylic acid 3-cyclobutylamide 5-[(1-isopropyl-piperidin-4-yl)-amide]], the Ki came out at 16 nM. The result for `CC(C)N1CCC(NC(=O)c2c(C#N)cnn2Cc2cc(-c3ccc(Cl)s3)on2)CC1` [Example 55, 2-[5-(5-Chloro-thiophen-2-yl)-isoxazol-3-ylmethyl]-4-cyano-2H-pyrazole-3-carboxylic acid (1-isopropyl-piperidin-4-yl)-amide] reads 99 nM. The value for `CC(C)N1CCC(NC(=O)c2nn(Cc3cc(-c4ccc(Cl)s4)on3)cc2C#N)CC1` [Example 56, 1-[5-(5-Chloro-thiophen-2-yl)-isoxazol-3-ylmethyl]-4-cyano-1H-pyrazole-3-carboxylic acid (1-isopropyl-piperidin-4-yl)-amide] was 144 nM. As for `CC(C)N1CCC(NC(=O)c2c(C#N)cnn2CC(=O)Nc2ccc(Cl)cc2)CC1` [Example 57, 2-[(4-Chloro-phenylcarbamoyl)-methyl]-4-cyano-2H-pyrazole-3-carboxylic acid (1-isopropyl-piperidin-4-yl)-amide], the Ki was found to be 410 nM. The result for `CC(C)N1CCC(NC(=O)c2cc(C(=O)NCCC(=O)O)nn2Cc2cc(-c3ccc(Cl)s3)on2)CC1` [Example 58, 3-{[1-[5-(5-Chloro-thiophen-2-yl)-isoxazol-3-ylmethyl]-5-(1-isopropyl-piperidin-4-ylcarbamoyl)-1H-pyrazole-3-carbonyl]-amino}-propionic acid] reads 63 nM; that for `CONC(=O)c1cc(C(=O)NC2CCN(C(C)C)CC2)n(Cc2cc(-c3ccc(Cl)s3)on2)n1` [Example 59, 1-[5-(5-Chloro-thiophen-2-yl)-isoxazol-3-ylmethyl]-1H-pyrazole-3,5-dicarboxylic acid 5-[(1-isopropyl-piperidin-4-yl)-amide] 3-(methoxy-amide)], 94 nM. The value for `CC(C)N1CCC(NC(=O)c2cc(C(=O)NCC(N)=O)nn2Cc2cc(-c3ccc(Cl)s3)on2)CC1` [Example 60, 1-[5-(5-Chloro-thiophen-2-yl)-isoxazol-3-ylmethyl]-1H-pyrazole-3,5-dicarboxylic acid 3-carbamoylmethyl-amide 5-[(1-isopropyl-piperidin-4-yl)-amide]] was 56 nM; that for `CCOC(=O)CNC(=O)c1cc(C(=O)NC2CCN(C(C)C)CC2)n(Cc2cc(-c3ccc(Cl)s3)on2)n1` [Example 61, {[1-[5-(5-Chloro-thiophen-2-yl)-isoxazol-3-ylmethyl]-5-(1-isopropyl-piperidin-4-ylcarbamoyl)-1H-pyrazole-3-carbonyl]-amino}-acetic acid ethyl ester] was 101 nM; that for `CC(C)N1CCC(NC(=O)c2cc(C(=O)NCCCO)nn2Cc2cc(-c3ccc(Cl)s3)on2)CC1` [Example 62, 1-[5-(5-Chloro-thiophen-2-yl)-isoxazol-3-ylmethyl]-1H-pyrazole-3,5-dicarboxylic acid 3-[(3-hydroxy-propyl)-amide] 5-[(1-isopropyl-piperidin-4-yl)-amide]] was 80 nM. The result for `CC(C)N1CCC(NC(=O)c2cc(C(=O)N3CC[C@H]3C(=O)O)nn2Cc2cc(-c3ccc(Cl)s3)on2)CC1` [Example 63, 1-[1-[5-(5-Chloro-thiophen-2-yl)-isoxazol-3-ylmethyl]-5-(1-isopropyl-piperidin-4-ylcarbamoyl)-1H-pyrazole-3-carbonyl]-(2S)-azetidine-2-carboxylic acid] reads 134 nM; that for `CC(C)N1CCC(NC(=O)c2cc(C(=O)N3CCC[C@H]3CO)nn2Cc2cc(-c3ccc(Cl)s3)on2)CC1` [Example 64, 2-[5-(5-Chloro-thiophen-2-yl)-isoxazol-3-ylmethyl]-5-(2S,2-hydroxymethyl-pyrrolidine-1-carbonyl)-2H-pyrazole-3-carboxylic acid (1-isopropyl-piperidin-4-yl)-amide], 90 nM. As to `CC(C)N1CCC(NC(=O)c2cc(C(=O)N3CCC[C@H]3C(=O)O)nn2Cc2cc(-c3ccc(Cl)s3)on2)CC1` [Example 65, 1-[1-[5-(5-Chloro-thiophen-2-yl)-isoxazol-3-ylmethyl]-5-(1-isopropyl-piperidin-4-ylcarbamoyl)-1H-pyrazole-3-carbonyl]-2S-pyrrolidine-2-carboxylic acid], the Ki turned out to be 142 nM. In the case of `COC[C@@H]1CCCN1C(=O)c1cc(C(=O)NC2CCN(C(C)C)CC2)n(Cc2cc(-c3ccc(Cl)s3)on2)n1` [Example 66, 2-[5-(5-Chloro-thiophen-2-yl)-isoxazol-3-ylmethyl]-5-(2S,2-methoxymethyl-pyrrolidine-1-carbonyl)-2H-pyrazole-3-carboxylic acid (1-isopropyl-piperidin-4-yl)-amide], the Ki was 152 nM. The value for `COC[C@H]1CC[C@H](COC)N1C(=O)c1cc(C(=O)NC2CCN(C(C)C)CC2)n(Cc2cc(-c3ccc(Cl)s3)on2)n1` [Example 67, 5-(2R,5R,2,5-Bis-methoxymethyl-pyrrolidine-1-carbonyl)-2-[5-(5-chloro-thiophen-2-yl)-isoxazol-3-ylmethyl]-2H-pyrazole-3-carboxylic acid (1-isopropyl-piperidin-4-yl)-amide] was 420 nM.

For the compound `CC(C)N1CCC(NC(=O)c2cc(C(=O)NC3=NCCO3)nn2Cc2cc(-c3ccc(Cl)s3)on2)CC1` [Example 68, 1-[5-(5-Chloro-thiophen-2-yl)-isoxazol-3-ylmethyl]-1H-pyrazole-3,5-dicarboxylic acid 3-[(4,5-dihydro-oxazol-2-yl)-amide] 5-[(1-isopropyl-piperidin-4-yl)-amide]], the Ki turned out to be 99 nM. Take `CCOC(=O)C1CCN(C(=O)c2cc(C(=O)NC3CCN(C(C)C)CC3)n(Cc3cc(-c4ccc(Cl)s4)on3)n2)CC1` [Example 69, 1-[1-[5-(5-Chloro-thiophen-2-yl)-isoxazol-3-ylmethyl]-5-(1-isopropyl-piperidin-4-ylcarbamoyl)-1H-pyrazole-3-carbonyl]-piperidine-4-carboxylic acid ethyl ester]: the Ki was determined as 177 nM.

By Ki is commonly meant a measure of affinity in units of concentration, obtained from inhibition or displacement.
